{Bodipy-C6} = Bodipy fluorophore attached via a 5'-C6 linker
What was measured:
[1] = tested on: viral single-strand DNA of bacteriophage M13 (M13mp18 (+) DNA); test: FCS of association of Bodipy-labeled primer with M13 single-strand DNA in solution; type: binding; settings: 40° C.
Procedure: The oligonucleotide is labeled with Bodipy (Molecular Probes) at the 5′-C6 position. The course of the association reaction with time was measured according to the invention in solution at 40° C. The solution contained 50 nM oligonucleotide, 50 nM of M13mp18 (+) DNA in […] tris buffer, pH 7.5, and 0.18 M sodium chloride. […] Autocorrelation was determined after 0, 0.5, 1, 2, 4, 8, 16, 32, 64, 128, 192, and 256 minutes. The diffusion time of the free primer is 0.17 ms, and 2.9 ms when complex-bound. […] A reassocation rate of 0.07 min^−1 results.

EGF receptor = target: T1, EGF receptor (Rattus norvegicus, UniProt G3V6K6); test: FCS of tetramethylrhodamine-labeled EGF associating with cell-bound EGF receptor at the outer cell membrane; type: binding
T1 construct: endogenous in cells; host or cells: NBD2 rat bladder cells (tumor-derived)
Text: (§1) FIGS. 26 to 28 show the use of the FCS method according to the invention • (i) for the determination of the behavior of a fluorescence labeled ligand with respect to association with a receptor of the outer cell membrane, • (ii) for distinguishing between bound and free ligand, and/or • (iii) for measuring ligand mobility in the case of a passage into the cytosol.
The cells are surface-fixed on Petri dishes in PBS buffer (phosphate buffered saline). […] For excitation, laser light of 500 nm wavelength of an argon laser (0.5 mW) had been chosen. […] Its concentration was 6 nM.

NBD2 rat bladder cells = test: FCS of internalized EGF mobility with the measuring volume in the cytosol; type: cell-based; settings: FIG. 27
Text: as §1
The cells are surface-fixed on Petri dishes in PBS buffer (phosphate buffered saline). They had been grown beforehand in standard medium until a confluent monolayer had been reached. The medium contained EGF labeled with tetramethylrhodamine. For excitation, laser light of 500 nm wavelength of an argon laser (0.5 mW) had been chosen. […] Its concentration was 6 nM.

| Substance | reassocation rate ([1]; 50 nM oligonucleotide, 50 nM M13mp18 (+) DNA, FIG. 29) | diffusion time of the free primer ([1]; 10 nM tris buffer pH 7.5, 0.18 M sodium chloride) | diffusion time of primer when complex-bound ([1]; bound to M13 DNA) | EGF receptors per measuring volume still retaining the ligand bound with high affinity (EGF receptor; after 30 minutes of washing, FIG. 26c) | τDfree of free EGF factor (printed as rotational diffusion coefficient) (EGF receptor; free EGF, 6 nM, PBS, FIG. 26a) | diffusion time τDcomplex of receptor bound complex (EGF receptor; receptor bound in cell membrane, FIG. 26b) | internalized EGF with the same mobility as the free factor (NBD2 rat bladder cells; cytosol) | internalized EGF hindered in mobility (NBD2 rat bladder cells; measuring volume within the cytosol) |
| --- | --- | --- | --- | --- | --- | --- | --- | --- |
| 5′-TGACCGGCAGCAAAATGT-3′ (DNA, 5' {Bodipy-C6}, backbone not given here) [M13/pUC (−21) primer, DNA oligonucleotide primer complementary to bacteriophage M13 single-strand DNA] | 0.07 min⁻¹ | 0.17 ms | 2.9 ms |  |  |  |  |  |
| human epidermal growth factor (EGF) |  |  |  | about 0.5 | 0.145 ms | 14.54 ms | 62% | 38% |

Source: patent publication US7534576B2, “Method and a device for the evaluation of biopolymer fitness” (Olympus Corporation, priority 1993, dated 2009)
